Laboratory results reported in patent EP2017288A1, “Protease stabilized, pegylated insulin analogues” (NOVO NORDISK A/S, priority 2007, dated 2009).

Assay: Pulmonary delivery to rats (intratracheal drop instillation)
Format: in vivo, male Wistar rats
Details: statement in words; Fig. 1 is a rat intratracheal drop instillation of the insulin of example 1
Procedure: The test substance will be dosed pulmonary by the drop instillation method. In brief, male Wistar rats (app.250 g) are anaesthesized in app. […] fentanyl/dehydrodenzperidol/-dormicum given as a 6.6 ml/kg sc primingdose and followed by 3 maintainance doses of 3.3 ml/kg sc with an interval of 30 min. Ten minutes after the induction of anaesthesia, basal samples are obtained from the tail vein (t = -20 min) followed by a basal sample immediately prior to the dosing of test substance (t=0). At t=0, the test substance is dosed intra tracheally into one lung. A special cannula with rounded ending is mounted on a syringe containing the 200 ul air and test substance (1 ml/kg). Via the orifice, the cannula is introduced into the trachea and is forwarded into one of the main bronchi -just passing the bifurcature. During the insertion, the neck is palpated from the exterior to assure intratracheal positioning. The content of the syringe is injected followed by 2 sec pause. Thereafter, the cannula is slowly drawn back. The rats are kept anaesthesized during the test (blood samples for up to 4 or 8 hrs) and are euthanized after the experiment.

Question: For “A14E, B25H, B29K(N^ε-3-mdPEG24-Propionyl), desB30 human insulin [Example 1]”, which pulmonary efficacy is on record?
Answer: substantial protracted pulmonary efficacy
